This is an account of results in ChEMBL document CHEMBL5584256, “Bromine/Sulfur-Substituted 9H-Carbazoles Produced by the Marine-Derived Streptomyces sp. OUCMDZ-5511 upon NaBr Exposure” (J Nat Prod, 2024).

Calls of active or inactive are those of the source. The calls are words filed in the database; no cut-off is given here.

For data set [1], the species on record is Danio rerio. Kind of data set: Anti-inflammatory activity in transgenic zebrafish harboring Tg (zlyz:EGFP) assessed as reduction in CuSO4-induced immune cell migration at 10 uM preincubated for 2 hrs followed by CuSO4 treatment for 45 mins by fluorescence microscopy. The data set is classed as functional, organism-based. To be noted: time 165.0 min.
A short description of data set [2]: Toxicity in transgenic zebrafish harboring Tg (zlyz:EGFP) preincubated for 2 hrs followed by CuSO4 treatment for 45 mins. Further details: species or system Danio rerio. To be noted: in vivo, time 165 min.
For data set [3], the species on record is Danio rerio. Kind of data set: Anti-inflammatory activity in transgenic zebrafish harboring Tg (zlyz:EGFP) assessed as reduction in CuSO4-induced immune cell migration at 5 to 15 uM preincubated for 2 hrs followed by CuSO4 treatment for 45 mins by fluorescence microscopy. The format is functional, organism-based. Conditions: dose 5-15 µM, time 165.0 min.

The species entered for data set [4] is Danio rerio. The data set is described as follows: Anti-inflammatory activity in transgenic zebrafish harboring Tg (zlyz:EGFP) assessed as reduction in CuSO4-induced IKK-beta mRNA level at 5 to 15 uM preincubated for 2 hrs followed by CuSO4 treatment for 45 mins […]. The format is functional, organism-based. Conditions: dose 5-15 µM, time 165.0 min.

For data set [5], the species on record is Danio rerio. Kind of data set: Anti-inflammatory activity in transgenic zebrafish harboring Tg (zlyz:EGFP) assessed as reduction in CuSO4-induced I-kappa-b-alpha mRNA level at 5 to 15 uM preincubated for 2 hrs followed by CuSO4 treatment for 45 mins […]. The data set is classed as functional, organism-based. To be noted: dose 5-15 µM, time 165.0 min.

The species named for data set [6] is Danio rerio. The data set is described as follows: Anti-inflammatory activity in transgenic zebrafish harboring Tg (zlyz:EGFP) assessed as reduction in CuSO4-induced NF-kappa-b mRNA level at 5 to 15 uM preincubated for 2 hrs followed by CuSO4 treatment for 45 mins […]. Conditions: dose 5-15 µM, time 165.0 min. The data set is classed as functional, organism-based.

For data set [7], the species on record is Danio rerio. The data set is described as follows: Anti-inflammatory activity in transgenic zebrafish harboring Tg (zlyz:EGFP) assessed as reduction in CuSO4-induced MYD88 mRNA level at 5 to 15 uM preincubated for 2 hrs followed by CuSO4 treatment for 45 mins […]. To be noted: dose 5-15 µM, time 165.0 min. The format is functional, organism-based.

The species entered for data set [8] is Danio rerio. Kind of data set: Anti-inflammatory activity in transgenic zebrafish harboring Tg (zlyz:EGFP) assessed as reduction in CuSO4-induced IL-8 mRNA level at 5 to 15 uM preincubated for 2 hrs followed by CuSO4 treatment for 45 mins […]. The data set is classed as functional, organism-based. To be noted: dose 5-15 µM, time 165.0 min.

The species named for data set [9] is Danio rerio. The data set is described as follows: Anti-inflammatory activity in transgenic zebrafish harboring Tg (zlyz:EGFP) assessed as reduction in CuSO4-induced IRAK1 mRNA level at 5 to 15 uM preincubated for 2 hrs followed by CuSO4 treatment for 45 mins […]. To be noted: dose 5-15 µM, time 165.0 min. The format is functional, organism-based.

Data set [10] is filed under the species Danio rerio. The data set is described as follows: Anti-inflammatory activity in transgenic zebrafish harboring Tg (zlyz:EGFP) assessed as reduction in CuSO4-induced IRAK4 mRNA level at 5 to 15 uM preincubated for 2 hrs followed by CuSO4 treatment for 45 mins […]. The format is functional, organism-based. To be noted: dose 5-15 µM, time 165.0 min.

Data set [11] is filed under the species Danio rerio. Kind of data set: Anti-inflammatory activity in transgenic zebrafish harboring Tg (zlyz:EGFP) assessed as reduction in CuSO4-induced TRAF6 mRNA level at 5 to 15 uM preincubated for 2 hrs followed by CuSO4 treatment for 45 mins […]. Conditions: dose 5-15 µM, time 165.0 min. The format is functional, organism-based.
Data set [12] is filed under the species Danio rerio. Kind of data set: Anti-inflammatory activity in transgenic zebrafish harboring Tg (zlyz:EGFP) assessed as reduction in CuSO4-induced MAP3K7 mRNA level at 5 to 15 uM preincubated for 2 hrs followed by CuSO4 treatment for 45 mins […]. The data set is classed as functional, organism-based. To be noted: dose 5-15 µM, time 165.0 min.

Data set [13] is filed under the species Danio rerio. The data set is described as follows: Anti-inflammatory activity in transgenic zebrafish harboring Tg (zlyz:EGFP) assessed as reduction in CuSO4-induced AP-1 mRNA level at 5 to 15 uM preincubated for 2 hrs followed by CuSO4 treatment for 45 mins […]. The data set is classed as functional, organism-based. To be noted: dose 5-15 µM, time 165.0 min.

For data set [14], the species on record is Danio rerio. Kind of data set: Anti-inflammatory activity in transgenic zebrafish harboring Tg (zlyz:EGFP) assessed as reduction in CuSO4-induced TGF-beta mRNA level at 5 to 15 uM preincubated for 2 hrs followed by CuSO4 treatment for 45 mins […]. The data set is classed as functional, organism-based. Conditions: dose 5-15 µM, time 165.0 min.

Data set [15] is filed under the species Danio rerio. The data set is described as follows: Anti-inflammatory activity in transgenic zebrafish harboring Tg (zlyz:EGFP) assessed as reduction in CuSO4-induced p38 mRNA level at 5 to 15 uM preincubated for 2 hrs followed by CuSO4 treatment for 45 mins […]. The data set is classed as functional, organism-based. Conditions: dose 5-15 µM, time 165.0 min.

The species entered for data set [16] is Danio rerio. Kind of data set: Anti-inflammatory activity in transgenic zebrafish harboring Tg (zlyz:EGFP) assessed as increase in CuSO4-reduced PPAR-gamma mRNA level at 5 to 15 uM preincubated for 2 hrs followed by CuSO4 treatment for 45 mins […]. The format is functional, organism-based. To be noted: dose 5-15 µM, time 165.0 min.

On to `COc1ccc2[nH]c3c(ccc4scnc43)c2c1Br`, for which the result in the data set listed under Danio rerio [1] was Active.

By LC50 is commonly meant the concentration lethal to half of the exposed cells or organisms. For `COc1ccc2[nH]c3c(O)cccc3c2c1Br`, the result in the data set filed under Danio rerio [1], in the data set filed under Danio rerio [3], in the data set listed under Danio rerio [4], in the data set listed under Danio rerio [5], in the data set filed under Danio rerio [6] and in the data set listed under Danio rerio [7] was Active. Also, the outcome in the data set filed under Danio rerio [8], in the data set listed under Danio rerio [9], in the data set filed under Danio rerio [10], in the data set listed under Danio rerio [11], in the data set listed under Danio rerio [12] and in the data set filed under Danio rerio [13] was Active. For the same molecule, the outcome in the data set listed under Danio rerio [14], in the data set filed under Danio rerio [15] and in the data set filed under Danio rerio [16] was Active. Further, the LC50 at 0.75 h in data set [2] came out at 68 µM.
